Experimental data taken from patent US10154970B2, “Methods for immunomodulation of cancer and infectious disease therapy” (The Regents of the University of California, priority 2014, dated 2018).
Read-outs that look alike come from different tables or passages of the source.

How the values were obtained:
[1] = test system: IFN-γ; settings: for antigen-specific immune response to the PV: short-course treatment
Description: FIG. 5. Effect of TRIP on the immune response to an antigen-specific peptide vaccine (PV). Mice received 8 weekly 10-μg doses of PV and daily oral TRIP treatment for the final 16 days of the study. Lymphocytes were isolated 48 hours after the final dose of PV for the enzyme-linked immunosorbent spot (ELISpot) assay. Data are expressed as the number of spot forming cells (SFC)/500,000 lymphocytes following exposure to medium (no peptide), scrambled peptide, and BP25 peptide.
A total of 43 wild type C57BL/6 mice were assigned to four different treatment groups: Control (n=10); and TRIP (i.e., ospemifene) 10, 50, and 100 mg/kg (n=11, all TRIP groups). All mice received a full course of tecemotide (L-BLP25) peptide vaccine (PV) immunotherapy (eight weekly 10 μg doses administered subcutaneously (s.c.) as described in Wurz G T. et al., J. Transl. Med., 11:64 (2013)). During the final 16 days of immunotherapy, mice received daily oral doses of TRIP according to treatment group assignment. TRIP oral dosing solutions were prepared by dissolving an appropriate amount of the drug in pure dimethyl sulfoxide (DMSO) and then adding peanut oil to the desired final concentration (final DMSO concentration was 2%). All doses were administered in a volume of 100 μl using 20-gauge stainless steel oral feeding needles. Control mice were given diluent only. Forty-eight hours following the final dose of PV, all mice were euthanized for the collection of blood for cytokine analysis by multiplex and spleens for assessing immune response by enzyme-linked immunosorbent spot (ELISpot) assay.
Data are expressed as the number of spot forming cells (SFC)/500,000 lymphocytes following exposure to medium (no peptide), scrambled peptide, and BP25 peptide.

[2] = test system: IFN-γ; settings: chronic daily TRIP 50 mg/kg + two cycles of PV
Description: (§1) FIG. 15. […] Antigen-specific IFN-γ immune response was assessed by ELISpot 48 hours following two cycles of peptide vaccine (PV).
(§2) A total of 55 mixed-sex hMUC1.Tg C57BL/6 mice, starting at approximately five weeks of age, were treated with urethane as described above. Approximately six weeks after the last dose of urethane, mice were randomized into four treatment groups of approximately equal average weight: Control (n=22); TRIP (i.e., ospemifene) 50 mg/kg (n=16); tecemotide (L-BLP25) peptide vaccine (PV) (n=6); and TRIP+PV (n=11). At this time (Week 21), mice assigned to the […] began treatment with the first of two cycles consisting of eight weekly 10 μg doses each, with approximately four weeks between cycles. Cycle 1 was administered during Weeks 21-28, and Cycle 2 from Weeks 32-39. The PV was prepared and administered as described above. Mice in the TRIP groups began daily oral treatment in Week 31, which continued through the end of the study (approximately eight weeks of dosing). TRIP was prepared and administered as described above. Mice not assigned to TRIP treatment received daily oral doses of diluent. At the conclusion of the study, 48 h after the final dose of PV and 24 h after the last dose of TRIP, all mice were euthanized for the collection of serum and spleens, which were processed as described above for multiplex serum cytokine, Treg, and CTL analyses.

[3] = test system: cytotoxic T lymphocyte activity
Description: as §1, §2

[4] = test system: IFN-γ; assay: Example 6: IFN-γ ELISpot response to BP25 peptide in allograft-bearing mice; assay type: in vivo, C57BL/6 wild type mice; settings: Day 28, TRIP 100 mg/kg + PV 100 μg
Description: IFN-γ immune response to scrambled and BP25 peptides following treatment with control (n=5), TRIP 100 mg/kg (n=6), PV 100 μg (n=6) and the TRIP+PV (n=6) combination. Each of four weekly 100 μg injections of peptide vaccine (PV) was preceded by three daily oral doses of TRIP. All mice were implanted with breast cancer allografts on Day 0, and spleens were collected for enzyme-linked immunosorbent spot (ELISpot) analysis on Day 28 following four weeks of treatment. The BP25 peptide is a 25-mer and the target antigen of the PV, while the scrambled peptide is a control peptide containing the same 25 amino acids in a scrambled arrangement.
On Day 0 of the study, all 32 mice were subcutaneously implanted with 1.0×10^6 mouse breast cancer cells expressing the PV target antigen (BP25). Two days later, mice began a three-day regimen of once daily 100 mg/kg TRIP administered orally. On Day 5, mice were administered their first weekly 100 μg dose of PV by subcutaneous injection. This treatment schedule was repeated for a total of four weeks. Tumor growth was assessed twice weekly. All mice were euthanized on Day 28 for the collection of serum and spleens to assess immune response to treatment. Immune response was assessed by performing IFN-γ ELISpot.

[5] = test system: pro-inflammatory cytokines (IL-6, IP-10, MIG, IL-1β, KC)
Description: Serum was analyzed by multiplex immunoassay 24 hours following the last dose of TRIP at each time point.
(§3) Following induction of lung cancer as described (Wurz G T. et al., J. Transl. Med., 11:64 (2013)), mice were randomized into four treatment groups: Control; and TRIP (i.e., ospemifene) 5, 25, and 50 mg/kg (n=12, all groups). TRIP and control solutions were orally administered by gavage according to treatment group. After 30 days of treatment (Week 20), a total of 16 mice, four from each treatment group, were euthanized, and whole blood was collected by cardiac puncture. The remaining mice continued daily TRIP treatments. An additional 16 mice, four from each treatment group, were euthanized following 60 (Week 24) and 90 (Week 28) days of treatment, and whole blood and livers were collected. Serum samples were subjected to multiplex cytokine analysis for TH1 (IL-2, IL-12, IFN-γ, TNF-α), TH2 (IL-4, IL-5, IL-10, IL-13) and inflammatory cytokines (MIP-1α, IP-10, MIG, IL-1β, IL-6, KC).
Terminal serum pro-inflammatory cytokines (IL-6, IP-10, MIG, IL-1β, KC) were analyzed 24 hours after the last dose at each time point (FIG. 7).

[6] = test system: IFN-γ; settings: at 20 weeks (30 days), 5-mg/kg TRIP dose level
Description: Average serum IFN-γ concentrations following daily oral TRIP treatment for 30 (Week 20), 60 (Week 24), and 90 (Week 28) days at the indicated doses (mg/kg). Serum was analyzed by multiplex immunoassay 24 hours after the final TRIP dose at each time point.
as §3

[7] = chronic daily TRIP 50 mg/kg + PV

Compound: OCCOc1ccc(/C(=C(/CCCl)c2ccccc2)c2ccccc2)cc1 [TRIP, Z-2-[4-(4-chloro-1,2-diphenyl-but-1-enyl)-phenoxy]ethanol]
- IFN-γ immune response by ELISpot, TRIP combined with PV vs PV alone ([1]; TRIP 10, 50, 100 mg/kg daily oral final 16 days + 8 weekly 10 μg PV s.c.): significantly increase
- antigen-specific immune response to the PV ([1]; high (100 mg/kg) dose of TRIP): significantly increased
- antigen-specific immune response to the PV ([1]; low (10 mg/kg) dose of TRIP): significantly increased
- PV-induced, antigen-specific immune response (IFN-γ ELISpot) [2]: significantly decreased
- CTL activity of the combination over that of PV alone [3, 7]: increased CTL activity
- additive CTL activity in combination with PV [3, 7]: no additive CTL activity
- CTL activity compared to control ([3]; chronic daily TRIP 50 mg/kg alone): slightly, but not significantly increased
- T cell immune response by ELISpot to the target antigen (BP25), PV in combination with TRIP [4]: specific IFN-γ responses
- T cell immune response by ELISpot, PV in combination with TRIP compared to PV alone [4]: increased immune response
- pro-inflammatory serum cytokine levels ([5]; TRIP 5, 25, 50 mg/kg daily oral, 30, 60, 90 days, compared to control group): decreasing levels
- serum IL-6 levels, control vs all doses of TRIP ([5]; at 28 weeks (90 days of treatment)): Differences
- serum IFN-γ [6]: elevated
